Like-named read-outs stand apart in the source and are kept apart here.
What was measured:
[1] = tested on: LNCaP (prostate carcinoma) cells; test: cells; format: cell-based, human; settings: for cell survival: LNCaP, CV787 MOI 0.01
Method: In preliminary experiments, we examined the chemosensitivity to different agents, as well as the oncolytic effect of CV787 in the prostate carcinoma LNCaP cells. Cells were plated in 96-well plates at a density of 20,000 cells per well. […] […] Cells were incubated at 37° C. in 5% CO2 for an additional two days. Cell viability was measured using the MTT assay. Mosmann et al., (1983). Briefly, 50 μl of 1 mg/ml MTT vital dye (Sigma, St. Louis, Mo.) was added to each well and allowed to incubate for 3 h at 37° C. and 5% CO2. Then, plates were drained to remove untransformed MTT and blot. 100 μl of isopropanol was added to each well, the plate was incubated for 15 minutes and vigorously shaken (Microshaker II, Dynatech) in order to ensure solubilization of the blue formazan. The optical density of each well was quantitated using an automatic plate reader (Molecular Devices, Sunnyvale, Calif.) with a 560 nm test wavelength and 690 nm reference wavelength. Cell viability was defined as the ratio of the mean absorbance of 9 treatment wells minus the blank to the mean absorbance of 6 untreated matched controls minus the blank. […] Each experiment was performed at least twice.
To study potential synergy or enhancement in treatment when administering CV787 and chemotherapy in vitro, the effectiveness of the combined treatment at several concentrations of paclitaxel, ranging from 0-62.5 nM, […], with CV787 at various MOIs, ranging from 0-10 MOI, was evaluated in the prostate carcinoma LNCaP cells. Cells were treated with CV787 and paclitaxel or docetaxel and the cell viability was determined at various time points after treatment by an MTT assay, as shown in FIGS. 2-4. […] To determine whether the timing of administration for the testing articles affected the combined oncolytic effect, LNCaP cells were treated with paclitaxel for 24 hours before or after infection with CV787.
The protocols described above were used to screen a number of different chemotherapeutic agents from various classes of chemotherapeutics. […]

[2] = tested on: caspase-7, poly-ADP-ribose-polymerase, Fas/Fas-L, Bcl-2, Bcl-XL, Bax; test: Immunoblot of apoptosis related protein markers in treated LNCaP cells; format: cell-based, human; settings: docetaxel 6.0 nM, CV787 MOI 0.5
From the text: Enhanced chemiluminescence (ECL; Amersham Pharmacia) was used for detection. […] All antibodies were used according manufacturer's instruction.

[3] = tested on: LNCaP prostate tumor xenografts; format: in vivo, athymic Balb/c nu/nu mice
From the text: Six to eight week old athymic Balb/c nu/nu mice were obtained from Simonson Laboratories (Gilroy, Calif.) and acclimatized to laboratory conditions one week prior to tumor implantation. Xenografts were established by injecting 1×10^6 LNCaP cells, suspended in 100 μd of RPMI 1640 and 100 μd of matrigel, subcutaneously near the small of the back. When tumors reached between 400 mm^3 and 600 mm^3, mice were randomized into groups of four. The first group received 1×10^10 particles of CV787 at day 1 via the tail vein intravenously (i.v.). CV787 was diluted in 0.1 ml lyophilized buffer (5% sucrose, 1% glycine, 1 mM MgCl2, 0.05% Tween-80 in 10 mM Tris buffer) and injected into the tail vein using a 28-gauge needle. The second group was given taxane only. Paclitaxel was intraperitoneally administered at a dose of 20 mg/kg, daily for 4 days starting at day 2. Docetaxel was intravenously administered at a dose of 5 or 12.5 mg/kg at day 2, 5 and 8. The third group was given CV787 (i.v.) at day 1 and taxane at the same doses and schedule as the second group. As a control, a fourth group was treated with 0.1 ml of normal saline (i.e. control) i.v. at day 1 and then i.p. or i.v. for 4 days. The dose and route of administration of paclitaxel were selected according to studies in nude mice (Riondel, J. et al., 1986, Cancer Chemother Pharmacol. 17:137-42.) (Chahinian, A. P. et al., 1998, J. Surg. Onc. 67:104-111.). For docetaxel, the dose was selected based on the human clinical dose. (RPR Pharm. Inc., Collegeville, Pa.) and determined by a dose-range finding study in nude mice. Tumors were measured weekly in two dimensions by external caliper and volume was estimated by the formula [length (mm)×width (mm)^2]/2 (7). Animals were humanely killed when their tumor burden became excessive. Serum was harvested weekly by retro-orbital bleed. The difference in mean tumor volume between treatment groups was compared for statistical significance using the unpaired, two-tailed, t-test. Blood samples were collected at various time points for determining prostate-specific antigen. Federal and institutional guidelines for animal care were followed.
Six to eight week old athymic Balb/c nu/nu mice were obtained from Simonson Laboratories (Gilroy, Calif.) and acclimatized to laboratory conditions one week prior to tumor implantation. Xenografts were established by injecting 1×10^6 LNCaP cells subcutaneously near the small of the back suspended in 100 μl of RPMI 1640 and 100 μl of maltrigel (Collaborative Biochemical Products). When tumors reached between 400 mm^3 and 600 mm^3, mice were randomized in groups of four each to receive either 1×10^10 particles of CV787 at day 1 via the tail vein or paclitaxel, 20 mg/kg intraperitoneally (i.p.) daily for 4 days starting at day 2, versus controls treated with normal saline 0.1 ml i.v. at day 1 and then i.p. for 4 days. In addition, another group of mice received the combination of CV787 and paclitaxel at the same doses and schedule as above. CV787 was diluted in lyophilized buffer and injected into tail vein in a volume of 0.1 ml using a 28-gauge needle. The dose and route of administration of paclitaxel were selected according to studies in nude mice by Riondel et al., (1986) Cancer Chemother Pharmacol. 17:137. These authors conducted acute toxicity studies of paclitaxel in nude mice and selected the unit dose of 12.5 mg/kg daily, being 1/20th of the LD50 dose (lethal dose for 50% of animals). Tumors were measured weekly in two dimensions by external caliper and volume was estimated by the formula [length (mm)×width (mm)^2]/2. Animals were humanely killed when their tumor burden became excessive. Serum was harvested weekly by retro-orbital bleed. The difference in mean tumor volume between treatment groups was compared for statistical significance using the unpaired, two-tailed, t-test. Blood samples were collected at various time points for determining prostate-specific antigen (PSA). […]

[4] = format: in vivo, Balb/C mice; settings: docetaxel alone
From the text: Finally, and of clinical significance are two other results. […] Indeed, animals treated with both CV787 and taxotere gain 24% more weight than untreated control animals (Table 2).

[5] = tested on: LNCaP prostate tumor xenografts; format: in vivo, athymic Balb/c nu/nu mice; settings: for change in tumor growth (FIG. 24): alone or with CV787 1×10^10 particles, 5 week period
[6] = tested on: LNCaP prostate tumor xenografts; test: LNCaP xenograft antitumor efficacy, intratumorally administered CV787 with paclitaxel; format: in vivo, athymic Balb/c nu/nu mice; settings: 6 weeks after treatment
Method: Six to eight week old athymic Balb/c nu/nu mice were obtained from Simonson Laboratories (Gilroy, Calif.) and acclimatized to laboratory conditions one week prior to tumor implantation. Xenografts were established by injecting 1×10^6 LNCaP cells subcutaneously near the small of the back suspended in 100 μl of RPMI 1640 and 100 μl of maltrigel (Collaborative Biochemical Products). When tumors reached between 400 mm^3 and 600 mm^3, mice were randomized in groups of four each to receive either 1×10^10 particles of CV787 at day 1 via the tail vein or paclitaxel, 20 mg/kg intraperitoneally (i.p.) daily for 4 days starting at day 2, versus controls treated with normal saline 0.1 ml i.v. at day 1 and then i.p. for 4 days. […] Tumors were measured weekly in two dimensions by external caliper and volume was estimated by the formula [length (mm)×width (mm)^2]/2. […]
The in vivo antitumor efficacy of intratumorally administered CV787 and the interaction of CV787 in the combination with paclitaxel was assessed in the LNCaP mouse xenograft model as described above. […]
All treatment groups received identical injections of the active agent or vehicle control into both the tumor and peritoneum. Tumor volume was measured just before the injection of test articles and once a week for 6 weeks thereafter.

[7] = CV787 1×10^10 particles i.v. single dose, paclitaxel 20 mg/kg 4 doses

Row | Structure (SMILES) | IC50 ([1]; Homo sapiens, 120 h, LNCaP cells, day 5, dose-response curve analysis) | cell survival ([1]; day 7 post treatment, % of the control, docetaxel 3.12 nM 24 hour before virus) | change of Bcl-2 expression [2] | effect of single agent on tumor growth ([3]; CV787 1×10^10 particles i.v., docetaxel 5.0 mg/kg i.v.) | minimum tumor volume, % of the original tumor volume ([3]; docetaxel 5 mg/kg alone, reached by week 1) | course of tumor volume (FIG. 29) ([3]; docetaxel 5 mg/kg, CV787 1×10^10 particles (CV787 alone also 1×10^11 particles), 6 weeks) | body weight [4] | relative tumor volume, % of baseline ([5]; four weeks after treatment, CV787 1×10^10 particles i.v. day 1, docetaxel 10 mg/kg i.v.) | cell survival ([1]; 6 days after virus infection, paclitaxel 6.25 nM) | time after treatment at which the regression was produced [3, 7] | tumor regression produced [3, 7] | tumor growth inhibition compared with the control group ([3]; day 21, CV787 1×10^10 particles, paclitaxel 20 mg/kg) | relative tumor volume, % of baseline ([3]; four weeks after treatment, CV787 1×10^10 particles i.v. day 1, paclitaxel 20 mg/kg i.p. daily for 4 days) | relative tumor volume, % of baseline ([3]; ten weeks after treatment, CV787 1×10^10 particles i.v., paclitaxel 20 mg/kg) | average tumor volume ([6]; CV787 1×10^7 particles/mm^3 intratumoral day 1, paclitaxel 15 mg/kg daily for four days) | average tumor volume, % of baseline ([6]; CV787 1×10^7 particles/mm^3 intratumoral, paclitaxel 15 mg/kg) | change in tumor growth (FIG. 24) ([5]; paclitaxel 2 mg/kg) | change in tumor growth (FIG. 24) ([5]; paclitaxel 10 mg/kg)
1 | CC(=O)O[C@@]12CO[C@@H]1C[C@H](O)[C@@]1(C)C(=O)[C@H](O)C3=C(C)[C@@H](OC(=O)[C@H](O)[C@@H](NC(=O)OC(C)(C)C)c4ccccc4)C[C@@](O)([C@@H](OC(=O)c4ccccc4)[C@H]21)C3(C)C [docetaxel] | 8.14 nM | 95% | did not observe a significant change | stabilization of tumor growth | approximately 50% | by week 6 has reached the starting tumor volume | transient weight loss | 49 % of baseline |  |  |  |  |  |  |  |  |  | 
2 | CC(=O)O[C@H]1C(=O)[C@@]2(C)[C@H]([C@H](OC(=O)c3ccccc3)[C@]3(O)C[C@H](OC(=O)[C@H](O)[C@@H](NC(=O)c4ccccc4)c4ccccc4)C(C)=C1C3(C)C)[C@]1(OC(C)=O)CO[C@@H]1C[C@@H]2O [paclitaxel] |  |  |  |  |  |  |  |  | 100% | 2 weeks | partial tumor regression | 70% | 31 % of baseline | 149 % of baseline | 630 mm^3 | 166 % of baseline | progressive enlargement of the tumor | merely arrests tumor growth
